ChEMBL document CHEMBL5260848, “Recent advancements in the development of bioactive pyrazoline derivatives” (Eur J Med Chem, 2020)
Values after ≈ are worked out from the molar mass of the structure shown.

Experiments:
[1] = biological target: T1, Carbonic anhydrase 1 (Homo sapiens, UniProt P00915); assay: Inhibition of human recombinant CA1
[2] = biological target: T2, Carbonic anhydrase 2 (Homo sapiens, UniProt P00918); assay: Inhibition of human recombinant CA2
[3] = biological target: Carbonic anhydrase 4 (Homo sapiens, UniProt P22748); assay: Inhibition of human recombinant CA4
[4] = biological target: T3, Carbonic anhydrase 9 (Homo sapiens, UniProt Q16790)
[5] = system: MCF7; assay: Cytotoxicity against human MCF7 cells; type: functional, cell-based
[6] = biological target: Acetylcholinesterase (Homo sapiens, UniProt P22303)
[7] = biological target: T1, Carbonic anhydrase 1
[8] = biological target: T3, Carbonic anhydrase 9; assay: Inhibition of human CA9
[9] = biological target: T2, Carbonic anhydrase 2
[10] = system: Ca9-22; assay: Cytotoxicity against human Ca9-22 cells assessed as reduction in cell viability incubated for 48 hrs by MTT assay; type: functional
[11] = system: HSC-2; assay: Cytotoxicity against human HSC-2 cells assessed as reduction in cell viability incubated for 48 hrs by MTT assay; type: functional
[12] = system: HSC-3; assay: Cytotoxicity against human HSC-3 cells assessed as reduction in cell viability incubated for 48 hrs by MTT assay; type: functional
[13] = Cytotoxicity against human HGF cells assessed as reduction in cell viability incubated for 48 hrs by MTT assay; type: functional
[14] = Cytotoxicity against human HPLF cells assessed as reduction in cell viability incubated for 48 hrs by MTT assay; type: functional
[15] = Cytotoxicity against human HPC cells assessed as reduction in cell viability incubated for 48 hrs by MTT assay; type: functional
[16] = biological target: T3, Carbonic anhydrase 9; assay: Inhibition of human CA9 preincubated for 15 mins by phenol red dye based stopped flow CO2 hydration assay
[17] = biological target: Carbonic anhydrase 12 (Homo sapiens, UniProt O43570); assay: Inhibition of human CA12 preincubated for 15 mins by phenol red dye based stopped flow CO2 hydration assay
[18] = system: Staphylococcus aureus; assay: microbe, parasite or virus in culture
[19] = system: Candida albicans; assay: Antifungal activity against Candida albicans assessed as reduction in microbial growth; type: functional
[20] = system: Cryptococcus neoformans; assay: Antifungal activity against Cryptococcus neoformans assessed as reduction in microbial growth; type: functional
[21] = Cytotoxicity against human Panel NCI-58 (58 carcinoma cell lines) cells; type: functional
[22] = system: Aspergillus clavatus; assay: Antifungal activity against Aspergillus clavatus; type: functional
[23] = system: Candida albicans; assay: Antifungal activity against Candida albicans; type: functional
[24] = system: Aspergillus niger; assay: Antifungal activity against Aspergillus niger; type: functional
[25] = system: Candida albicans; assay: Antifungal activity against Candida albicans by agar dilution method; type: functional
[26] = Antioxidant activity assessed as DPPH radical scavenging activity; type: functional
[27] = system: Mus musculus; assay: Antidiabetic activity against albino mouse assessed as reduction in blood glucose level at 0.2 mmol/Kg relative to control; type: functional; set-up: scale not given: the % may be the effect or the level left

Chain of Acetylcholinesterase (P22303 whole entry): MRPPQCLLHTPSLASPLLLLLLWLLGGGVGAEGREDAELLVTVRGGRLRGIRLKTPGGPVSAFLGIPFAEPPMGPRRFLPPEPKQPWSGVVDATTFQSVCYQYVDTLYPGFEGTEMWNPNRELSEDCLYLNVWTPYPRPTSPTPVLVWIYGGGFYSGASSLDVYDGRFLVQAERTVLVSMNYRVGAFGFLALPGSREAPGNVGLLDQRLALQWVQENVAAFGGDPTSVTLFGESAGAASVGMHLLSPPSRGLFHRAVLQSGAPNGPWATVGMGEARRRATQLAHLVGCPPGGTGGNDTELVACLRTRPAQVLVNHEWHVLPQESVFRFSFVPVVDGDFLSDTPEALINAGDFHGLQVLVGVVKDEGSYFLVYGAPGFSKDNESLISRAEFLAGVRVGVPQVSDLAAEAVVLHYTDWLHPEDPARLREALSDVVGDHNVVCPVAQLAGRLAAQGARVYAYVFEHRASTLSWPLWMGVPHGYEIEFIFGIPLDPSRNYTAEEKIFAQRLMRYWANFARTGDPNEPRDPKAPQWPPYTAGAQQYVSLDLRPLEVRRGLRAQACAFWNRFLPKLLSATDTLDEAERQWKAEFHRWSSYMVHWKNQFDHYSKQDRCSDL
T1 sequence (P00915 whole entry): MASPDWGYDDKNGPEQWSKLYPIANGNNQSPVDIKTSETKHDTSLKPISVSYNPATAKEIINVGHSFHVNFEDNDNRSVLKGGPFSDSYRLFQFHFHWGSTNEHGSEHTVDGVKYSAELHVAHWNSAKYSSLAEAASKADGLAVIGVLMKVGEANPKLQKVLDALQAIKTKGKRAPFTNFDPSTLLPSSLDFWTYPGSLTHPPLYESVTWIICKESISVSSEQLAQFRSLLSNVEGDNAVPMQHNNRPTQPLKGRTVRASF
Chain of Carbonic anhydrase 12 (O43570 whole entry): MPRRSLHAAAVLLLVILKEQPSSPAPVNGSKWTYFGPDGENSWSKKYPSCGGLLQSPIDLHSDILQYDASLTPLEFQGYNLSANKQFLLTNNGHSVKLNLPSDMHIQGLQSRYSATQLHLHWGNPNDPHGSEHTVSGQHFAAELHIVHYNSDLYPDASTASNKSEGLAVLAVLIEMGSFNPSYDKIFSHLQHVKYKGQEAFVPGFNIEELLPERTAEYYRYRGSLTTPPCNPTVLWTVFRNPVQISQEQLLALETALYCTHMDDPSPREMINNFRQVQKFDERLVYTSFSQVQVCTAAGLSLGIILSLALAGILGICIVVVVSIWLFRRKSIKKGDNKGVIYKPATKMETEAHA
Chain of Carbonic anhydrase 4 (P22748 whole entry): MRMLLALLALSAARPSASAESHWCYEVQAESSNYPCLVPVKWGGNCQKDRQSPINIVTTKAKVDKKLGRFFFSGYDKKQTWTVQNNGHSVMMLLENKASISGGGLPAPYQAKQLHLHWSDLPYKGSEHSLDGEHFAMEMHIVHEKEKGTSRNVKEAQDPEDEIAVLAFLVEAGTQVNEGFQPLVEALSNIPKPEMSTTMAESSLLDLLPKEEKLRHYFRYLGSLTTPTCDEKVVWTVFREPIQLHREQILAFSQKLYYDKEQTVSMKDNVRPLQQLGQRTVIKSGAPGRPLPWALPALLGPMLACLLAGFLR

## CC(=O)N1N=C(c2ccc(OS(N)(=O)=O)cc2)CC1c1ccccc1Cl (stereo not given)
[1]
  Ki: 2460 nM
[2]
  Ki: 0.4 nM
[3]
  Ki: 17.7 nM
[4]
  Ki: 14.8 nM

## CN1N=C2C(C[C@H]3[C@@H]4CCc5cc(O)ccc5[C@H]4CC[C@]23C)C1c1ccc(Br)cc1 (stereo not given in full)
[5]
  IC50: 43 nM

## C[C@]12CC[C@@H]3c4ccc(O)cc4CC[C@H]3[C@@H]1CC1C2=NN(c2ccccc2)C1c1ccc(Br)cc1 (stereo not given in full)
[5]
  IC50: 43 nM

## COc1ccc(C2CC(c3ccc(Br)cc3)=NN2c2ccc(S(N)(=O)=O)cc2)c(OC)c1 (stereo not given)
[6]
  Ki: 37.7 nM

## COc1ccc(C2=NN(C(=O)c3ccc(S(N)(=O)=O)cc3)C(c3ccc(OC)cc3)C2)cc1 (stereo not given)
[7]
  Ki: 87.8 nM
[8]
  Ki: 5.5 nM
[9]
  Ki: 31.7 nM

## NS(=O)(=O)c1ccc(N2N=C(c3ccc(O)cc3)CC2c2ccccc2)cc1 (stereo not given)
[7]
  Ki: 317 nM
[10]
  CC50: 39300 nM
[11]
  CC50: 39300 nM
[12]
  CC50: 39300 nM
[13]
  CC50: 39300 nM
[14]
  CC50: 39300 nM
[15]
  CC50: 39300 nM
[16]
  Ki: 53.5 nM
[17]
  Ki: 6.2 nM
[9]
  Ki: 412 nM

## Cc1ccc(C2CC(c3ccc(O)cc3)=NN2c2ccc(S(N)(=O)=O)cc2)cc1 (stereo not given)
[10]
  CC50: 39300 nM
[11]
  CC50: 39300 nM
[12]
  CC50: 39300 nM
[13]
  CC50: 39300 nM
[14]
  CC50: 39300 nM
[15]
  CC50: 39300 nM

## COc1ccc(C2CC(c3ccc(F)cc3)=NN2c2ccc(S(N)(=O)=O)cc2)c(OC)c1 (stereo not given)
[6]
  Ki: 37.7 nM

## COC(=O)C1N=NN(CC(=O)N2N=C(c3nnn(Cc4ccccc4)c3C)CC2c2ccc(OC)cc2)C1C(=O)OC (stereo not given)
[18]
  MIC: 3.9 µg/mL (≈ 6.79 µM)

## COc1ccc(C2CC(c3ccc(Cl)cc3)=NN2c2ccc(S(N)(=O)=O)cc2)c(OC)c1 (stereo not given)
[6]
  Ki: 37.7 nM

## COc1ccc(C2CC(c3cccc(Nc4ccnc5cc(Cl)ccc45)c3)=NN2c2ccccc2)cc1 (stereo not given)
[19]
  MIC50: 3.9 µg/mL
[20]
  MIC50: 3.9 µg/mL
[21]
  GI50: < 1000 nM

## O=C(c1ccncc1)N1N=C(c2cccc([N+](=O)[O-])c2)CC1c1cc2ccccc2nc1Cl (stereo not given)
[22]
  MIC: 12.5 µg/mL (≈ 27.3 µM)
[23]
  MIC: 12.5 µg/mL (≈ 27.3 µM)
[24]
  MIC: 12.5 µg/mL (≈ 27.3 µM)

## COc1ccc2cc(C3CC(c4cc(Br)ccc4O)=NO3)c3nnnn3c2c1 (stereo not given)
[25]
  MIC: 25 µg/mL (≈ 56.8 µM)
[26]
  IC50: 23.3 µg/mL (≈ 52.9 µM)

## COC(=O)C1N=NN(CC(=O)N2N=C(c3ccccc3)CC2c2ccc(OC)cc2)C1C(=O)OC (stereo not given)
[18]
  MIC: 3.9 µg/mL (≈ 8.13 µM)

## COc1ccc(C2CC(c3ccccc3)=NN2c2ccc(S(N)(=O)=O)cc2)c(OC)c1 (stereo not given)
[6]
  Ki: 37.7 nM

## NS(=O)(=O)c1ccc(N2N=C(c3ccc(O)cc3)CC2c2ccc(Cl)cc2)cc1 (stereo not given)
[10]
  CC50: 39300 nM
[11]
  CC50: 39300 nM
[12]
  CC50: 39300 nM
[13]
  CC50: 39300 nM
[14]
  CC50: 39300 nM
[15]
  CC50: 39300 nM
[16]
  Ki: 53.5 nM
[17]
  Ki: 6.2 nM

## COc1cc(C2CC(c3cccc(Nc4ccnc5cc(Cl)ccc45)c3)=NN2c2ccc(Cl)cc2)cc(OC)c1OC (stereo not given)
[19]
  MIC50: 3.9 µg/mL
[20]
  MIC50: 3.9 µg/mL
[21]
  GI50: < 1000 nM

## COc1ccc(C2CC(c3ccc(F)cc3)=NN2c2ccc(S(N)(=O)=O)cc2)cc1OC (stereo not given)
[6]
  Ki: 37.7 nM

## O=C(NC1CCCCC1)NS(=O)(=O)c1ccc(N2N=C(c3ccc(Br)cc3)CC2c2ccc(F)cc2)cc1 (stereo not given)
[27]
  Activity: 16%

## COc1ccc(C2=NN(C(=O)c3ccc(S(N)(=O)=O)cc3)C(c3ccc(OC)c(OC)c3)C2)c(OC)c1 (stereo not given)
[7]
  Ki: 2670 nM
[8]
  Ki: 5.5 nM

## COc1ccc(C2=NN(C(C)=O)C(c3ccc(OS(N)(=O)=O)cc3)C2)cc1 (stereo not given)
[1]
  Ki: 2460 nM
[2]
  Ki: 0.4 nM
[3]
  Ki: 17.7 nM
[4]
  Ki: 14.8 nM

## NS(=O)(=O)c1ccc(N2N=C(c3ccc(O)cc3)CC2c2ccc(Br)cc2)cc1 (stereo not given)
[10]
  CC50: 39300 nM
[11]
  CC50: 39300 nM
[12]
  CC50: 39300 nM
[13]
  CC50: 39300 nM
[14]
  CC50: 39300 nM
[15]
  CC50: 39300 nM
[16]
  Ki: 53.5 nM
[17]
  Ki: 6.2 nM

## CC(=O)N1N=C(c2ccc(OS(N)(=O)=O)cc2)CC1c1ccccc1 (stereo not given)
[1]
  Ki: 2460 nM
[2]
  Ki: 0.4 nM
[3]
  Ki: 17.7 nM
[4]
  Ki: 14.8 nM

## NS(=O)(=O)c1ccc(C(=O)N2N=C(c3ccccc3)CC2c2ccc(Cl)cc2)cc1 (stereo not given)
[7]
  Ki: 87.8 nM
[8]
  Ki: 5.5 nM
[9]
  Ki: 31.7 nM

## Cc1ccc(C2=NN(c3ccc(S(=O)(=O)NC(=O)Nc4ccccc4)cc3)C(c3ccc(F)cc3)C2)cc1 (stereo not given)
[27]
  Activity: 16%

## CN1N=C2C(C[C@H]3[C@@H]4CCc5cc(O)ccc5[C@H]4CC[C@]23C)C1c1cccs1 (stereo not given in full)
[5]
  IC50: 43 nM
